Reference: patent publication US20220227781A1, “PYRIMIDINE DERIVATIVE INHIBITING GROWTH OF CANCER CELL AND MEDICINAL USE THEREOF” (ONCOBIX CO., LTD., priority 2019, published 2022)

What follows are compounds tested against EXON 20 Insertion (NPG) Ba/F3 Cell (Homo sapiens, UniProt P00533, INS772GNP, cells depend on it) (assay: Measurement of inhibitory effect on cancer cell growth (MTT assay)). Conditions: read-out: Measured value of inhibitory effect on cancer cell growth (IC50), EXON 20 Insertion (NPG) Ba/F3 Cell, Ba/F3 cells expressing EGFR with NPG inserted at D770_N771, 72 hours treatment, read at 595 nm.
EXON 20 Insertion (NPG) Ba/F3 Cell, sequence (P00533 with tags, fused parts or gaps INS772GNP): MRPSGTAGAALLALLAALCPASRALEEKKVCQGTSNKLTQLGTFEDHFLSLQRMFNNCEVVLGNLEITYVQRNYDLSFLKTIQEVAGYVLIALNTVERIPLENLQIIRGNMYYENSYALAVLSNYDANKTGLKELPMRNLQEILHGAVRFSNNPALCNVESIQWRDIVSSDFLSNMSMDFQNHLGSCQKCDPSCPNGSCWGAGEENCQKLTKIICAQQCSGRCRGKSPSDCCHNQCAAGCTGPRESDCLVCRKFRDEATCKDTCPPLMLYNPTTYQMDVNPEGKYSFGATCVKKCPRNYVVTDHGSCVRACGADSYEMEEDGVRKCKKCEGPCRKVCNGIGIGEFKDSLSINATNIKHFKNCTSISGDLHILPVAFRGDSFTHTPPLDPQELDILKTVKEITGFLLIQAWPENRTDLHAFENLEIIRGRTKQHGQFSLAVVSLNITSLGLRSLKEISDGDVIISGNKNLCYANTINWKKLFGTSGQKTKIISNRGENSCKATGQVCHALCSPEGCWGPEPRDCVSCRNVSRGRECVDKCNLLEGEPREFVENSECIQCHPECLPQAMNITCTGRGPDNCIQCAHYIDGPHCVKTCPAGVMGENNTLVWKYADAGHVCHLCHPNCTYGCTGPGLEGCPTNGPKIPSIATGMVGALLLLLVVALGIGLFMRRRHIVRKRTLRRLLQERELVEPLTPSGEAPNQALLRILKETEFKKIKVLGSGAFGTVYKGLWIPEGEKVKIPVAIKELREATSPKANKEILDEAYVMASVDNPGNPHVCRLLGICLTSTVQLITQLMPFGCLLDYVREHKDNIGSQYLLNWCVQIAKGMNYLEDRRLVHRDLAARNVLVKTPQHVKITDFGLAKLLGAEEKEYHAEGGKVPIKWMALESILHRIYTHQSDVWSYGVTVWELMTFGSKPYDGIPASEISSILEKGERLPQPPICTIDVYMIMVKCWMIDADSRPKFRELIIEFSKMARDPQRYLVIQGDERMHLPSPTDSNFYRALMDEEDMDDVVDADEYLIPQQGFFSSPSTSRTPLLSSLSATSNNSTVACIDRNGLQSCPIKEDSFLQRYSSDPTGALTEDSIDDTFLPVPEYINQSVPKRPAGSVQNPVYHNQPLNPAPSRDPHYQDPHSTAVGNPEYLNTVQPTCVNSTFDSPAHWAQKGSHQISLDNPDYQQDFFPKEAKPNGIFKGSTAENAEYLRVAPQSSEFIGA
Procedure: First, the present invention used a vector in which NPG of 3 amino acids were added to D770_N771 site of the most frequent alterations, and used the Ba/F3 cell line for expression of these genes.
Pre-constructed stable cells of 1×10^4 cells were placed in a 96 well plate and incubated overnight, and then the compounds of Examples were treated at a dose dependent manner After 72 hours, MTT reagent was added, and after 3 hours, stop buffer (10% SDS) was added.

`COc1cc(N2CCC(N3CCN(C)CC3)CC2)c(NC(C)C)cc1Nc1ncc(Cl)c(Nc2ccccc2N(C)S(C)(=O)=O)n1` [Example 5, N-(2-((5-chloro-2-((5-(isopropylamino)-2-methoxy-4-(4-(4-methylpiperazin-1-yl)piperidin-1-yl)phenyl)amino)pyrimidin-4-yl)amino)phenyl)-N-methylmethanesulfonamide] and `COc1cc(N2CCC(N3CCN(C)CC3)CC2)c(NC(C)C)cc1Nc1nc(Nc2ccccc2N(C)S(C)(=O)=O)c2sccc2n1` [Example 4, N-(2-((2-((5-(isopropylamino)-2-methoxy-4-(4-(4-methylpiperazin-1-yl)piperidin-1-yl)phenyl)amino)thieno[3,2-d]pyrimidin-4-yl)amino)phenyl)-N-methylmethanesulfonamide] fall in the same range of GI50: 300 to 1000 nM for the first, 300 to 1000 nM for the second.

`COc1cc(N2CCC(N(C)C)CC2)c(NC(C)C)cc1Nc1ncc(Cl)c(Nc2ccccc2N(C)S(C)(=O)=O)n1` [Example 6, N-(2-((5-chloro-2-((4-(4-(dimethylamino)piperidin-1-yl)-5-(isopropylamino)-2-methoxyphenyl)amino)pyrimidin-4-yl)amino)phenyl)-N-methylmethanesulfonamide] and `COc1cc(N2CCC(N(C)C)CC2)c(NC(C)C)cc1Nc1nc(Nc2ccccc2N(C)S(C)(=O)=O)c2sccc2n1` [Example 3, N-(2-((2-((4-(4-(dimethylamino)piperidin-1-yl)-5-(isopropylamino)-2-methoxyphenyl)amino)thieno[3,2-d]pyrimidin-4-yl)amino)phenyl)-N-methylmethanesulfonamide] fall in the same range of GI50: 300 to 1000 nM for the first, 300 to 1000 nM for the second.

`C=CC(=O)Nc1cc(Nc2ncc(C(=O)OC3CC3)c(Nc3ccccc3N(C)S(C)(=O)=O)n2)c(OC)cc1N(C)CCN(C)C` [Example 16, CYCLOPROPYL 2-((5-acrylamido-4-((2-(dimethylamino)ethyl)(methyl)amino)-2-methoxyphenyl)amino)-4-((2-(N-methylmethylsulfonamido)phenyl)amino)pyrimidine-5-carboxylate] and `C=CC(=O)Nc1cc(Nc2ncc(C(=O)OC(C)C)c(Nc3ccccc3N(C)S(C)(=O)=O)n2)c(OC)cc1N(C)CCN(C)C` [Example 15, ISOPROPYL 2-((5-acrylamido-4-((2-(dimethylamino)ethyl)(methyl)amino)-2-methoxyphenyl)amino)-4-((2-(N-methylmethylsulfonamido)phenyl)amino)pyrimidine-5-carboxylate] cannot be ordered by GI50: under 100 nM for the first, under 100 nM for the second.

First: C=CC(=O)Nc1cc(Nc2nc(Nc3ccccc3N(C)S(C)(=O)=O)c3sccc3n2)c(OC)cc1N(C)CCN(C)C [Example 8, N-(2-((2-(dimethylamino)ethyl)(methyl)amino)-4-methoxy-5-((4-((2-(N-methylmethylsulfon amido)phenyl)amino)thieno[3,2-d]pyrimidin-2-yl)amino)phenyl)acrylamide]
Second: COc1cc(N(C)CCN(C)C)c(NC(C)C)cc1Nc1nc(Nc2ccccc2N(C)S(C)(=O)=O)c2sccc2n1 [Example 2, N-(2-((2-((4-((2-(dimethylamino)ethyl)(methyl)amino)-5-(isopropylamino)-2-methoxyphenyl)amino)thieno[3,2-d]pyrimidin-4-yl)amino)phenyl)-N-methylmethanesulfonamide]
The GI50 of the first is lower: 100 to 300 nM for the first, 300 to 1000 nM for the second.

`C=CC(=O)Nc1cc(Nc2ncc(Cl)c(Nc3cc(F)ccc3N(C)S(C)(=O)=O)n2)c(OC)cc1N(C)CCN(C)C` [Example 13, N-(5-((5-chloro-4-((5-fluoro-2-(N-methylmethylsulfonamido)phenyl)amino)pyrimidin-2-yl)amino)-2-((2-(dimethylamino)ethyl)(methyl)amino)-4-methoxyphenyl)acrylamide] and `C=CC(=O)Nc1cc(Nc2ncc(Cl)c(Nc3cc(F)ccc3NS(C)(=O)=O)n2)c(OC)cc1N(C)CCN(C)C` [Example 14, N-(5-((5-chloro-4-((5-fluoro-2-(methylsulfonamido)phenyl)amino)pyrimidin-2-yl)amino)-2-((2-(dimethylamino)ethyl)(methyl)amino)-4-methoxyphenyl)acrylamide] cannot be ordered by GI50: under 100 nM for the first, under 100 nM for the second.

`C=CC(=O)Nc1cc(Nc2ncc(Cl)c(Nc3ccc4nccnc4c3N(C)S(C)(=O)=O)n2)c(OC)cc1N(C)CCN(C)C` [Example 11, N-(5-((5-chloro-4-((5-(N-methylmethylsulfonamido)quinoxalin-6-yl)amino)pyrimidin-2-yl)amino)-2-((2-(dimethylamino)ethyl)(methyl)amino)-4-methoxyphenyl)acrylamide] and `C=CC(=O)Nc1cc(Nc2ncc(Cl)c(Nc3ccc4nccnc4c3NS(C)(=O)=O)n2)c(OC)cc1N(C)CCN(C)C` [Example 12, N-(5-((5-chloro-4-((5-(methylsulfonamido)quinoxalin-6-yl)amino)pyrimidin-2-yl)amino)-2-((2-(dimethylamino)ethyl)(methyl)amino)-4-methoxyphenyl)acrylamide] cannot be ordered by GI50: under 100 nM for the first, under 100 nM for the second.

First: C=CC(=O)Nc1cc(Nc2ncc(Cl)c(Nc3ccccc3NS(C)(=O)=O)n2)c(OC)cc1N(C)CCN(C)C [Example 10, N-(5-((5-chloro-4-((2-(methylsulfonamido)phenyl)amino)pyrimidin-2-yl)amino)-2-((2-(dimethylamino)ethyl)(methyl)amino)-4-methoxyphenyl)acrylamide]
Second: COc1cc(N(C)CCN(C)C)c(NC(C)C)cc1Nc1ncc(Cl)c(Nc2ccccc2N(C)S(C)(=O)=O)n1 [Example 1, N-(2-((5-chloro-2-((4-((2-(dimethylamino)ethyl)(methyl)amino)-5-(isopropylamino)-2-methoxyphenyl)amino)pyrimidin-4-yl)amino)phenyl)-N-methylmethanesulfonamide]
The GI50 of the first is lower: under 100 nM for the first, 300 to 1000 nM for the second.

`C=CC(=O)Nc1cc(Nc2nc(Nc3ccccc3N(C)S(C)(=O)=O)c3sccc3n2)c(OC)cc1N1CCC(N2CCN(C)CC2)CC1` [Example 7, N-(4-methoxy-5-((4-((2-(N-methylmethylsulfonamido)phenyl)amino)thieno[3,2-d]pyrimidin-2-yl)amino)-2-(4-(4-methylpiperazin-1-yl)piperidin-1-yl)phenyl)acrylamide] and `C=CC(=O)Nc1cc(Nc2nc(Nc3ccccc3N(C)S(C)(=O)=O)c3sccc3n2)c(OC)cc1N1CCC(N(C)C)CC1` [Example 9, N-(2-(4-(dimethylamino)piperidin-1-yl)-4-methoxy-5-((4-((2-(N-methylmethylsulfonamido)phenyl)amino)thieno[3,2-d]pyrimidin-2-yl)amino)phenyl)acrylamide] fall in the same range of GI50: 100 to 300 nM for the first, 100 to 300 nM for the second.

For `C=CC(=O)Nc1cc(Nc2cc(Nc3ccccc3N(C)S(C)(=O)=O)ncn2)c(OC)cc1N(C)CCN(C)C` [Example 17, N-(2-((2-(dimethylamino)ethyl)(methyl)amino)-4-methoxy-5-((6-((2-(N-methylmethylsulfon amido)phenyl)amino)pyrimidin-4-yl)amino)phenyl)acrylamide], the GI50 was under 100 nM.
